Target: T1, KDM2A (Homo sapiens, UniProt Q9Y2K7)
T1 construct: isolated enzyme
T1 sequence (Q9Y2K7 1-517 limits assumed): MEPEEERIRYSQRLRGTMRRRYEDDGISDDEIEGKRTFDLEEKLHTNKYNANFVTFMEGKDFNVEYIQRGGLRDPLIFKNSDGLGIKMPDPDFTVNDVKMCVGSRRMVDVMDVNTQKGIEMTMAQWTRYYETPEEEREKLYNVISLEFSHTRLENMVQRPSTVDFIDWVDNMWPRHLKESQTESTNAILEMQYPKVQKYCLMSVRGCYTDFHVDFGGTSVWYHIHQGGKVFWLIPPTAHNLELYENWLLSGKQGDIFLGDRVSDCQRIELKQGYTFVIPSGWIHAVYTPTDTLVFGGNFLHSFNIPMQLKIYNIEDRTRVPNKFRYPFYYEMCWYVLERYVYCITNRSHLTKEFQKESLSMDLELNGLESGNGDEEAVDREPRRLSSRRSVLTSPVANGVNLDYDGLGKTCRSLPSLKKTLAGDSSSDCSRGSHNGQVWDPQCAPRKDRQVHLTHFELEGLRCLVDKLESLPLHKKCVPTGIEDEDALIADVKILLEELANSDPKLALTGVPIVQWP
Assay: demethylase activity assay (RapidFire MS / AlphaScreen)
Type: biochemical
Conditions: not competitive with 2-OG or peptide substrate

Question: Which IC50 does the source give for `CC(=O)N1c2ccccc2[C@@](C#N)(c2ccccc2)[C@@H]1c1cncc(CCCCCCCN2CCCC2)c1` [(S,S)-6] here?
Answer: The IC50 was 160 nM.

From paper PMC5725665, “Discovery of a Highly Selective Cell‐Active Inhibitor of the Histone Lysine Demethylases KDM2/7” (Angewandte Chemie (International Ed. in English), 2017)
